Assay results taken from article PMC12571071, “Preventing neuropathy and improving anticancer chemotherapy with a carbazole-based compound” (Science Advances, 2025).
Read-outs that look alike come from different tables or passages of the source. Blank lines part the entries; values can stand above or below the compound they belong to.

How the values were obtained:
HeLa cells [1] = experiment: HeLa cell viability (PrestoBlue) assay, 72 h; type: cell-based, human; details: HeLa cells; for GI50: Homo sapiens
Procedure: The human HeLa cell line was tested negative for mycoplasma contamination. HeLa cells were grown in RPMI 1640 medium supplemented with penicillin/streptomycin (100 μg/ml) and 10% FBS and maintained in a humidified incubator at 37°C and 5% CO2.
Cell viability was analyzed using the colorimetric PrestoBlue assay. Cells were seeded in 96-well microplates at a density of 7500 cells per well, allowed to adhere for 24 hours, and treated for 72 hours with either DMSO or drugs at indicated concentrations. PrestoBlue (10 μl) was then added to each well, followed by a 30-min incubation. Fluorescence was measured using a FLUOstar Optima microplate reader (excitation, 544 nm; emission, 580 nm; BMG Labtech).

DRG explants = experiment: Mouse embryonic 3D DRG explants: axonal degeneration and myelination (MBP/TUBB3); type: cell-based; details: 72 h; Carba1 12 μM or PTX 500 nM
Procedure: Embryonic DRG 3D explants were prepared from E13.5 mouse embryos and seeded at one explant/1.9 cm^2 on acid-treated, Matrigel-coated glass coverslips ([64], [65]). Explants were cultured at 37°C under 5% CO2 and high saturated in humidity. From DIV 0 to DIV 3, cultures were maintained in C-medium supplemented with 10% FBS, 1× GlutaMAX, D-glucose (4 g/liter), 2.5S nerve growth factor (NGF; 50 ng/ml), and 1% penicillin/streptomycin. From DIV 3 to DIV 7, neurobasal medium supplemented with 1× B27, 1× GlutaMAX, D-glucose (4 g/liter), 2.5S NGF (50 ng/ml), and 1% penicillin/streptomycin was used to promote axon development. From DIV 7 onward, differentiation medium [C-medium supplemented with 5 μM forskolin, ascorbic acid (50 μg/ml), and heparin (25 μg/ml)] was used to support glial cell maturation and myelination, with medium changes occurring every 2 days.
DRGs were fixed with 10% formalin for 20 min at R.T., washed with PBS, and permeabilized for 10 min with PBS–0.1% Triton X-100. Blocking was performed using a solution of 3% bovine serum albumin (BSA), 0.1% glycine, and 5% goat preimmune serum in PBS for 2 hours at R.T. DRGs were then washed in PBS and incubated overnight at 4°C with of anti-TUBB3 (1 μg/ml) and anti-MBP (1 μg/ml). After PBS washes, secondary antibodies (goat anti-mouse Alexa Fluor 488, 1:1000, and goat anti-rabbit Alexa Fluor 647, 1:1000) were applied for 1 hour at R.T. Explants were mounted with ProLong Gold antifade reagent with 4′,6-diamidino-2-phenylindole (DAPI).
Images of random fields of DRG explants, fixed in 4% formaldehyde and immunostained for TUBB3 and MBP, were captured with consistent acquisition times across samples, using a Zeiss AxioImager M2 microscope, equipped with a Hamamatsu Orca R2 camera. Image analysis was performed using Fiji software. The images were thresholded using the default global autothreshold method. For each field, MBP^+ segments were counted and normalized to the TUBB3^+ area.

PTX-induced neuropathy = experiment: Rat model of PTX-induced peripheral neuropathy (von Frey, serum NfL, IENFD); type: in vivo
Procedure: Control animals received an equivalent volume of the vehicle (cremophor EL:ethanol, 1:1) diluted 1:4 in 0.9% NaCl.
Carba1 was injected intraperitoneally six times (50 mg/kg) on days 0, 1, 2, 4, 7, and 9, resulting in a cumulative dose of 300 mg/kg (Fig. 2F). For each injection, Carba1 was injected intraperitoneally at 50 mg/kg on days 0, 1, 2, 4, 7, and 9, for a cumulative dose of 300 mg/kg, using a stock solution (150 mg/ml; cremophor EL:ethanol, 1:1) diluted to 50 mg/ml in 0.9% NaCl. Control animals for Carba1 received the same volume of the vehicle [cremophor EL:ethanol (1:1) diluted 1:3 in 0.9% NaCl]. […] To prevent cross-exposure through feces and urine, treatment groups were randomized by cage, with each cage housing three animals.
Tactile allodynia, a common sensory disorder reported in animal models of CIPN ([56]), was assessed using an electronic von Frey test (Bioseb) ([68]). Rats were placed in plastic compartments on a wire floor and allowed to habituate for 15 min. […] The maximum force (in grams) causing withdrawal was recorded automatically. The average of two measurements, not differing by more than 10 g, was used as the nociceptive threshold ([68]). Rats were habituated to the compartments 3 days before the first injection, and the experimenter was blinded to treatment groups.
Blood samples were collected on day 15 in vials with a clot activator, left at R.T. for up to 1 hour before centrifugation at 4100 rpm at 20°C for 10 min. Serum was then collected, aliquoted, and stored at −80°C until analysis. To reduce batch effects, serum samples were randomized on assay plates. NfL concentration was measured in the serum using commercial kits (Simple Plex Ella ProteinSimple, USA; Rat NfL Kit ProteinSimple) ([27]).
Skin samples from both hind paws were fixed in 4% PFA overnight at 4°C, followed by sucrose cryoprotection (10, 20, and 30%) at 4°C overnight. After embedding in tissue freezing medium, the samples were at −80°C. Sections (20 μm) were cut using a cryostat at −17°C, washed with PBS for 5 min, and dried. The sections were blocked in PBS/0.2% Triton X-100/1%BSA for 1 hour and then incubated overnight at R.T. with anti-PGP9.5 antibody (1:400). After washing with PBS, sections were incubated with goat anti-rabbit Alexa Fluor488 secondary antibody for 2 hours, and the nuclei were stained with DAPI. Imaging was performed by acquiring 0.5 μm Z-stacks and exposure times for DAPI and fluorescein isothiocyanate set to 600 ms. Quantification followed the method described by Lauria et al. ([69]).

[2] = tested on: HeLa cells xenografted in mice; experiment: HeLa tumor xenograft in nude mice; type: in vivo; details: i.v. every 2 days, PTX 8 mg/kg, Carba1 60 mg/kg alone or with PTX
Procedure: Five-week-old NMRI nude mice (Janvier Labs) were implanted with 10 × 10^6 HeLa cells (200 μl in PBS) on the right flank. On day 6, the mean tumor volume was 120 ± 4 mm^3. […] Behavior and signs of pain were monitored daily. Body weight and tumor volume were measured two to three times per week using electronic calipers, with tumor volume (in cubic millimeters) calculated as length (millimeters)/2 × width^2 (square millimeters). Tumor growth inhibition was analyzed using GraphPad Prism with one-way analysis of variance (ANOVA) and Dunn’s multiple comparisons test for treatment versus vehicle. Mice were euthanized on day 20, when the vehicle group reached ethical limits. Blood samples were collected by intracardiac puncture in EDTA-coated tubes for differential blood counts and hemograms, outsourced to IDEXX BioAnalytics. For biochemical analysis, blood was collected in heparin-lithium tubes, and plasma was isolated by centrifugation and frozen at −80°C. Plasma was analyzed using MS Scan II (Melet Schloesing) and VET16 reagent rotors to measure markers of renal and hepatic function, metabolism, and nutritional and muscular status. Differential counts, hemograms, and biochemical data were analyzed with GraphPad Prism using Kruskal-Wallis test and Dunn’s multiple comparisons test.

adult mouse DRG neurons = experiment: Axonal degeneration index in dissociated adult mouse DRG neurons; details: DIV 12 neurons, 72 h; Carba1 12 μM, PTX 50 nM, Cis 10 μM, Bort 100 nM
Procedure: After 4 days in vitro (DIV), at least 30% of medium was changed, and 10 μM AraC (cytosine β-D-arabino furanoside) was added to suppress nonneuronal growth. […] Neurons were fixed with 4% paraformaldehyde (PFA), washed with PBS, permeabilized with PBS–0.01% Triton X-100 for 15 min, and blocked with PBS–10% FBS for 1 hour before being stained overnight at 4°C with neurofilament antibody. Following PBS washes, secondary antibody (goat anti-chicken Alexa Fluor 488) was applied for 2 hours at room temperature (R.T.). Following additional PBS washes, coverslips were mounted with Fluoromount-G.
Images of random fields of dissociated adult DRG neurons, immunostained with antineurofilament or anti-TUBB3 antibodies, were captured using a 20× objective lens (Olympus IX81) and a Sensicam QE monochrome camera (Cooke Corporation). Degeneration masks were generated on the basis of the method described by Gerdts et al. ([66]). Axonal degeneration was quantified by measuring the total axonal area and fragmented axonal area in the same field, using degeneration masks as shown in fig. […] Images were processed in Fiji using global autothresholding, binarization, and the particle analyzer module to detect fragments (20 to 10,000 pixels), as previously described ([17]). The degeneration index was calculated as the ratio of fragmented axonal area to total axonal area.

HeLa cells [3] = experiment: NAD(P)H autofluorescence imaging in live HeLa cells; type: cell-based, human; details: 5 and 10 nM FK866, 24-hour incubation
Procedure: HeLa cells were seeded in four-chamber Labtek plates at 10,000 cells per well. After 48 hours, cells were preincubated with or without 12 μM Carba1 for 2 hours before addition of FK866 (5 and 10 nM). Drugs were added to phenol red–free DMEM medium, supplemented with 10% FBS 1% penicillin/streptomycin. After 24 hours of drug incubation, cells were imaged using a confocal microscope (LSM 710, Zeiss) with a two-photon excitation at 700 nm (Chameleon Vision Laser, Coherent) and a 40×/1.2 water-immersion objective. Detection was performed in single-photon mode using an avalanche photodiode detector (ConfoCor 3). NAD(P)H signal intensity was quantified as the mean signal per cell using ImageJ and normalized to the cell area.

NAMPT [4] = target: T1, NAMPT (Homo sapiens, UniProt P43490); experiment: AS-MS binding assay, NAMPT; details: 10 μM compound, 3 μM NAMPT
Procedure: (§1) To this end, Carba1 or FK866 (positive control of NAMPT binding) was first incubated with NAMPT or carbonic anhydrase (CA; negative control). Protein-ligand complexes were separated from the unbound compounds by size exclusion chromatography (SEC). To quantify the protein-bound fraction, the complexes were then dissociated using reverse-phase chromatography, and the compounds were analyzed and quantified by mass spectrometry.
(§2) AS-MS was used to assess compound binding to NAMPT. AS-MS was performed by Edelris SAS (www.edelris.com/), which has developed the commercial AS-MS service “EDEN platform,” based on ([71]). Conditions consisted of protein (NAMPT and CA) at 3 μM and compounds (Carba1 and FK866) at 10 μM dissolved in corporate buffer.
Target sequence in this assay (P43490 whole entry, species assumed): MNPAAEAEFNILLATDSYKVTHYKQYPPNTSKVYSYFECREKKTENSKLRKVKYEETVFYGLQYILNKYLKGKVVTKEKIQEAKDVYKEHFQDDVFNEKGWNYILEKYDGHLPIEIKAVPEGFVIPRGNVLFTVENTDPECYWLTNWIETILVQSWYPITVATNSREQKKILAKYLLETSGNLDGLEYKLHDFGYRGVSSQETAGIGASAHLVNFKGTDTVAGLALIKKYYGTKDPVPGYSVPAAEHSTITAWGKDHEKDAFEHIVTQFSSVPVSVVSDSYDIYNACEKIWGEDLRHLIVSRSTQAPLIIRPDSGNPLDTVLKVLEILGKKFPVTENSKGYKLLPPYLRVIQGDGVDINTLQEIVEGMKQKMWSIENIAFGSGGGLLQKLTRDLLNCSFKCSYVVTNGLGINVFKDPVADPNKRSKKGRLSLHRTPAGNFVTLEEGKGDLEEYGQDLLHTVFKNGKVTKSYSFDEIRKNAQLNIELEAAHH

carbonic anhydrase (CA) = experiment: AS-MS binding assay, carbonic anhydrase (negative control); details: 10 μM compound, 3 μM carbonic anhydrase
Procedure: as §1, with “spectrometry. By comparing the amounts of compound before (preSEC) and after (postSEC) SEC in the presence of CA or NAMPT, we assessed their ability to selectively bind to NAMPT.” for “spectrometry.”
as §2

NAMPT [5] = target: T1, NAMPT; experiment: NAMPT activity assay (coupled recombinant enzyme kit); type: biochemical; design: purchased Abcam ab221819; details: OD450 at 60 min, normalized by subtraction of DMSO value
Text: We next tested whether Carba1 could activate NAMPT in vitro. To that aim, we used a commercial recombinant human enzyme assay containing four enzymes: NAMPT, NAM nucleotide adenylyltransferase 1 (NMNAT1), alcohol dehydrogenase (ADH), and diaphorase (see Materials and Methods). In the presence of NAM and 5-phosphoribosyl-1-pyrophosphate (PRPP), NAMPT converts NAM to NMN, which is then converted into NAD^+ by NMNAT1, while ADH converts NAD^+ to NADH. Then, into a coupled-reaction, diaphorase converts NADH into NAD^+ and tetrazolium salt WST-1 {4-[3-(4-iodophenyl)-2-(4-nitro-phenyl)-2H-5-tetrazolio]-1,3-benzene sulfonate} to formazan, which can be detected at optical density at 450 nm (OD450). In practice, we proceeded in two steps. First, Carba1 and the different tested compounds were incubated for 15 min with NAMPT, NMNAT1, NAM, and PRPP to allow NAD^+ production. The reaction was then stopped with FK866 before adding ADH and diaphorase to convert the NAD^+ produced to NADH, and absorbance was monitored at regular intervals.
NAMPT activity was measured using the commercial kit, NAMPT Activity Assay, according to the manufacturer’s instructions. […] A mixture of water-soluble tetrazolium salts (WST-1), ADH, diaphorase, and ethanol was added and the absorbance (OD450) measured for 90 min using the microplate reader ClarioSTAR (BMG Labtech).
Target sequence in this assay (P43490 whole entry): as the sequence (P43490 whole entry, species assumed) above

[6] = rat serum, day 15, outliers removed

SMILES: CC(=O)O[C@H]1C(=O)[C@@]2(C)[C@H]([C@H](OC(=O)c3ccccc3)[C@]3(O)C[C@H](OC(=O)[C@H](O)[C@@H](NC(=O)c4ccccc4)c4ccccc4)C(C)=C1C3(C)C)[C@]1(OC(C)=O)CO[C@@H]1C[C@@H]2O [PTX, paclitaxel, reference compound]
GI50 (HeLa cells [1]; 72 h, PrestoBlue, drug applied alone, read-out: GI50, drug alone): 4.2 ± 0.4 nM
MBP staining (axonal myelination), agent alone (DRG explants): significant reduction in MBP staining
IENFD, mean (PTX-induced neuropathy; rat hind paw biopsies, day 15): 13.43 number/mm
IENFD, median (PTX-induced neuropathy; rat hind paw biopsies, day 15): 13.62 number/mm
NfL, mean (PTX-induced neuropathy; [6]): 96.00 pg/mL
NfL, median (PTX-induced neuropathy; [6]): 82.50 pg/mL
tactile allodynia (paw withdrawal threshold, electronic von Frey), agent alone (PTX-induced neuropathy; rat, i.p., PTX 5 mg/kg x4 or Carba1 50 mg/kg x6): developed a tactile allodynia
reduction of IENFD, agent alone (PTX-induced neuropathy; rat, vs controls): 30%
tumor size [2]: markedly reduced tumor size
axonal fragmentation / degeneration, agent alone (adult mouse DRG neurons): induced robust axonal degeneration

GI50 (HeLa cells [1]; read-out: GI50 of FK866 alone): 2.4 ± 0.09 nM
SMILES: O=C(/C=C/c1cccnc1)NCCCCC1CCN(C(=O)c2ccccc2)CC1 [FK866, reference compound]
reduction of NAD(P)H production (HeLa cells [3]): ~ 20%
binding to NAMPT (AS-MS) (NAMPT [4]): recovered in the fraction containing NAMPT
binding to CA (AS-MS) (carbonic anhydrase (CA)): neither FK866 nor Carba1 was found to bind CA

SMILES: OC(CNc1ccccc1)Cn1c2ccc(Br)cc2c2cc(Br)ccc21 (stereo not shown) [Compound P7C3, reference compound]
relief of FK866 cytotoxicity (HeLa cells [1]; coadministration with FK866): unable to counteract the toxic effect of FK866
activation of NAMPT in vitro (NAMPT [5]): No significant effect
